# According to US4772607A, “Dialkenyl derivatives of xanthine, pharmaceutical compositions and methods of use therefor” (Warner-Lambert Company, priority 1986, dated 1988):
# Several values for one entry are separate records, joined by “and”; a condition that tells them apart may be missing. Equal entries are not always repeated. Structures can show the parent of a compound that is named as a salt.
# Key:
# [1] = tested on: A1 and A2 adenosine receptor; conditions: disclosed by Hamilton et al, J. Med. Chem. (1985) 28: 1071; cited from earlier work
# [2] = tested on: locomotor suppressant effects of A1 selective adenosine agonist CPA; assay: CNS activity: antagonism of locomotor suppressant effect of A1 agonist CPA in mice; format: in vivo, mouse (male Swiss-Webster)
# Protocol: (§1) The procedure employs naive animals obviating the need for extensive training and precluding possible cumulative drug effects.
# (§2) Suspensions are ultrasonicated for 3 minutes.
# [3] = tested on: locomotor suppressant effects of A2 selective agonist CV-1808; assay: CNS activity: antagonism of locomotor suppressant effect of A2 agonist CV-1808 in mice; format: in vivo, mouse (male Swiss-Webster); conditions: for Locomotor activity, % suppression (B, A2 agonist alone): CV-1808 8 mg/kg IP alone
# Protocol: as §1, §2
# [4] = target: T1, A1 adenosine receptor (Rattus norvegicus, UniProt P25099); assay: Adenosine Receptor Binding--A1 Receptor Affinity (RBA1), [3H]-CHA, rat whole brain membranes; set-up: species or system rat (male Long-Evans); conditions: [3H]-CHA 1.0 nM, 25° C., one hour, pH 7.7; read-out: RBA-1 IC50 (adenosine A1 receptor affinity)
# T1 construct: Whole brain minus cerebellum and brainstem from male Long-Evans rats (150-200 g) is homogenized; from tissue; host or cells: rat whole brain minus cerebellum and brainstem, membranes
# T1 sequence (P25099 1-326): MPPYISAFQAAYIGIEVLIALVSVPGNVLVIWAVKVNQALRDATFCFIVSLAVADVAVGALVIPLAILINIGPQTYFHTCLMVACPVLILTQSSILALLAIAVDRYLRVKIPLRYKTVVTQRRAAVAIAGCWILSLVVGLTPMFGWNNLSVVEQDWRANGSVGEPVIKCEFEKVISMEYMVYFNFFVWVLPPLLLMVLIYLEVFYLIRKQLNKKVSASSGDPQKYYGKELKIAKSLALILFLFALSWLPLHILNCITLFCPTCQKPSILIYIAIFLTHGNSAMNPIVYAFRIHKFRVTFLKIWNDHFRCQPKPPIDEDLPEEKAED
# Protocol: Adenosine Receptor Binding--A1 Receptor Affinity (RBA1)
# Whole brain minus cerebellum and brainstem from male Long-Evans rats (150-200 g) is homogenized in 30 volumes of ice-cold 0.05M Tris-HCl buffer pH 7.7 using a Brinkman Polytron PT-10, (setting number 6 for 20 seconds) and centrifuged for ten minutes at 20,000×g (Sorvall RC-2), 4° C. The supernatant is discarded, and the pellet is resuspended and centrifuged as before. The pellet is resuspended in 20 ml Tris-HCl buffer containing two International Units/ml of adenosine deaminase (Sigma type III from calf intestinal mucosa), incubated at 37° C. for 30 minutes, then subsequently at 0° C. for ten minutes. The homogenate is again centrifuged, and the final pellet is resuspended in ice-cold 0.05M Tris-HCl buffer pH 7.7 to a concentration of 20 mg/ml original wet tissue weight and used immediately.
# Tissue homogenate (10 mg/ml) is incubated in 0.05M Tris-HCl buffer pH 7.7 containing 1.0 nM [^3 H]-N6-cyclohexyladenosine ([^3 H]-CHA) with or without test agents in triplicate for one hour at 25° C. Incubation volume was 2 ml. Unbound [^3 H]-CHA is separated by rapid filtration under reduced pressure through Whatman glass fiber (GF/B) filters. The filters are rinsed three times with 5 ml of ice-cold 0.05M Tris-HCl buffer pH 7.7. The radio-labeled ligand retained on the filter is measured by liquid scintillation spectrophotometry after shaking the filters for one hour or longer on a mechanical shaker in 10 ml of Beckman Ready-Solv HP scintillation cocktail.
# The Scatchard plot is calculated by linear regression of the line obtained by plotting the amount of radioligand bound (pmoles/gram of tissue) versus [formula] Since the amount of radioligand bound is a small fraction of the total amount added, free radioligand is defined as the concentration of (nM) of radioligand added to the incubation mixture. The Hill coefficient is calculated by linear regression of the line obtained by plotting the log of the bound radioligand vs the log of the [formula] The maximal number of binding sites (Bmax) is calculated from the Scatchard plot.
# [5] = CNS activity: locomotor activity of antagonist alone in mice (reference control); format: in vivo, mouse (male Swiss-Webster); conditions: antagonist 10 mg/kg IP alone; CV-1808 experiment
# [6] = target: T2, A2 adenosine receptor (Rattus norvegicus, UniProt P30543); assay: Adenosine Receptor Binding--A2 Receptor Affinity (RBA2), [3H]NECA, rat striatal membranes; set-up: species or system rat (Sprague-Dawley); conditions: [3H]NECA 4 nM, 50 nM N6-cyclopentyladenosine, 25° C., 60 minutes; read-out: RBA-2 IC50 (adenosine A2 receptor affinity)
# T2 construct: Brains are thawed and then kept on ice while the striata are dissected out; tissue Pel-Freez (Rogers, Ark.); host or cells: rat striatum, membranes
# Protocol: Adenosine Receptor Binding--A2 Receptor Affinity (RBA2)
# The membrane suspension (5 mg/0.79 ml) contained sufficient MgCl2 and adenosine deaminase to give 10 mM and 0.1 units/ml, respectively, final concentration in the incubation.
# [formula] where Y is cpm bound
# T is cpm total binding without drug
# S is cpm specific binding without drug
# D is the concentration of drug and
# K is the IC50 of the drug
# T2 sequence (P30543 whole entry): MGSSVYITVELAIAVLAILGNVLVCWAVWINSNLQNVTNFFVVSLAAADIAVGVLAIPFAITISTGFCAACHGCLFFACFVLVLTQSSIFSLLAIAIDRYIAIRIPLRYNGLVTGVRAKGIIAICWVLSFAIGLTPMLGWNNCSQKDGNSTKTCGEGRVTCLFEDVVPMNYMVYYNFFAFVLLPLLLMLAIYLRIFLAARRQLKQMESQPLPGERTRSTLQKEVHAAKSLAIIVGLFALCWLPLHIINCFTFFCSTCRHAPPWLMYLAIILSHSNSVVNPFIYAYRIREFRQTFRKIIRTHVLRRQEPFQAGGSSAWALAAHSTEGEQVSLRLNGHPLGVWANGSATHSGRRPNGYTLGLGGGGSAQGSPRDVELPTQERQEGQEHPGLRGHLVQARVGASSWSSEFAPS
compound,measurement,setting,value
"8-(4-sulfonylphenyl)-3,9-dihydro-1,3-bis(2-propenyl)-1H-purine-2,6-dione",A1 and A2 adenosine receptor binding activity (in words),[1],having A1 and A2 adenosine receptor binding activity
"C=CCn1c(=O)c2nc(C)[nH]c2n(CC=C)c1=O [8-methyl-3,9-dihydro-1,3-bis(2-propenyl)-1H-purine-2,6-dione]",A1 and A2 adenosine receptor binding activity (in words),[1],having A1 and A2 adenosine receptor binding activity
"OC[C@H]1O[C@@H](n2cnc3c(NC4CCCC4)ncnc32)[C@H](O)[C@@H]1O [CPA, N^6 -cyclopentyladenosine, reference compound]","Locomotor activity, % suppression (B, A1 agonist alone)",[2]; CPA 2 mg/kg IP alone,90% and 94%
"Nc1nc(Nc2ccccc2)nc2c1ncn2[C@@H]1O[C@H](CO)[C@@H](O)[C@H]1O [CV-1808, 2-anilinoadenosine, reference compound]","Locomotor activity, % suppression (B, A2 agonist alone)",[3]; 8 mg/kg,83%
same,"Locomotor activity, % suppression (B, A2 agonist alone)",[3]; listed as CV-1810,62%
"C=CCn1c(=O)c2nc(-c3ccc(Cl)cc3N)[nH]c2n(CC=C)c1=O [Example 1, 8-(2-Amino-4-chlorophenyl)-3,9-dihydro-1,3-bis(2-propenyl)-1H-purine-2,6-dione]",A1 and A2 adenosine receptor binding activity (in words),[1],having A1 and A2 adenosine receptor binding activity
same,IC50,[4],130 nM
"C=CCn1c(=O)c2nc(-c3ccc(S(=O)(=O)O)cc3)[nH]c2n(CC=C)c1=O [Example 2, 4-(2,3,6,7-Tetrahydro-2,6-dioxo-1,3-di-2-propenyl-1H-purine-8-yl)benzenesulfonic acid]",IC50,[4],6960 nM
"C=CCn1c(=O)c2[nH]c(-c3ccc(S(=O)(=O)NCCCN(C)C)cc3)nc2n(CC=C)c1=O [Example 3, N-[3-(dimethylamino)propyl]-4-(2,3,6,7-tetrahydro-2,6-dioxo-1,3-di-2-propenyl-1H-purine-8-yl)benzenesulfonamide monohydrochloride]",IC50,[4],260 nM
"C=CCn1c(=O)c2[nH]c(C3CCCC3)nc2n(CC=C)c1=O [Example 4, 8-Cyclopentyl-3,7-dihydro-1,3-bis(2-propenyl)-1H-purine-2,6-dione]","Locomotor activity, % suppression (A, antagonist alone)",[5],18%
same,"Locomotor activity, % suppression (C, agonist + antagonist)","[2]; antagonist 10 mg/kg + CPA 2 mg/kg, IP",16%
same,"% Reversal (B - C) ÷ B × 100, against CPA (A1)","[2]; antagonist 10 mg/kg, CPA 2 mg/kg, IP",82%
same,Reversal Rating A1 (against CPA),[2]; paired t-test of B and C,"A (if the values are significantly different (p<0.05) from each other then the dose effect is given a reversal rating of ""A"")"
same,IC50,[6],3.5 µM
same,IC50,[4],9 nM
same,"% Reversal (B - C) ÷ B × 100, against CV-1808 (A2)","[3]; antagonist 10 mg/kg, CV-1808 8 mg/kg, IP",8%
same,"Locomotor activity, % suppression (C, agonist + antagonist)","[3]; antagonist + CV-1808 8 mg/kg, IP, antagonist 10 mg/kg",57%
same,Reversal Rating A2 (against CV-1808),[3]; paired t-test of B and C,"N (if the data are insignificant (p>0.05) then the dose effect is given a rating of ""N"")"
"C=CCn1c(=O)c2[nH]c(-c3ccc(S(=O)(=O)NCCCN(C)C)cc3)nc2n(CC=C)c1=O [N-[3-(dimethylamino)propyl]-4-(2,3,6,7-tetrahydro-2,6-dioxo-1,3-2-propenyl-1H-purine-8-yl)benzensulfonamide]",A1 and A2 adenosine receptor binding activity (in words),[1],having A1 and A2 adenosine receptor binding activity
